# Source: patent publication US20130165426A1, “IMIDAZOPYRIDINE, IMIDAZOPYRIMIDINE AND IMIDAZOPYRAZINE DERIVATIVES AS MELANOCORTIN-4 RECEPTOR MODULATORS” (UNIVERSITÉ DE MONTRÉAL, priority 2010, published 2013)
# Non-standard residues stand in square brackets, D forms with d. Nle = CCCC[C@H](N)C(=O)O
# Biological target: T1, wild-type human melanocortin 4 receptor (WT-hMC4R) (Homo sapiens, UniProt P32245)
# T1 construct: expressed in transfected cells
# Assay: Cyclic AMP assay (HTRF), antagonist competition against NDP-α-MSH
# Type: cell-based
# Details: HEK293T cells stably expressing WT-hMC4R; inhibition of response to 4 nM NDP-α-MSH; cAMP
# Protocol: The general procedures described above were used to prepare the examples described below. Reported HPLC retention time are for reverse-phase HPLC (Agilent, 1200 series) using the conditions reported above (See “General” section). Mass spectra were recorded on a 6210 G1969A LC/MSD TOF spectrometer from Agilent Technologies using the LC conditions reported above (See “General” section). IC50 values were obtained using the cAMP assay described below.
# IC50 value is the half maximal concentration of the tested compound to inhibit half of the maximal response of the agonist NDP-α-MSH. It is a measurement of the antagonist compound potency.
# Intracellular cyclic 3′-5′ adenosine monophosphate (cAMP) accumulation was measured using a competitive immunoassay based on HTRF (Homogeneous Time-Resolved Fluorescence) technology (cAMP dynamic-2, Cis-Bio).
# HEK293T stable cell line expressing double-tagged WT-hMC4R construct were collected and washed in cAMP buffer (1×D-PBS pH 7.4, 0.1% glucose). 40,000 cells/well were then dispensed in 96-well plates in cAMP buffer [1×D-PBS, 1% BSA, 0.1% Glucose, 0.75 mM 3-isobutyl-1-methyl-xanthine (IBMX, Sigma)] and incubated either for antagonist competition assay: 1 hour at 37° C. with various concentrations of compound [0.01 nM-10 μM] followed by 30 min incubation at 37° C. with 4 nM of NDP-α-MSH (Sigma) or for agonist assay: 1 hour at 37° C. with various concentrations of compound [0.01 nM-10 μM]. 10,000 cells were transferred in 384-well plates, lysed and incubated with cAMP labeled with the dye d2 and anti-cAMP M-Antidody labeled with Cryptate following the manufacturer's protocol.
# Reading of HTRF signal was performed on Artemis TR-FRET plate reader (Cosmo Bio).
# All curve fitting was conducted using non-linear regression analyses from PRISM (version 4.0c, GraphPad Inc.) and the determination of Rmax and EC50 or IC50 parameters were obtained from sigmoidal dose-response phase (variable slope) equation.
# A cDNA encoding a wild-type human MC4R with a 3 tandem copies of Hemaglutinine (HA) epitote sequence from UMR cDNA resource center was modified using known techniques in the art (e.g., PCR, cloning) to fused in frame at the C-terminal a venus-Yellow Fluorescent Protein (YFP) cDNA.
# The resultant cDNA was then subcloned in eukaryotic expression vector, e.g. pcDNA 3.1(+) (Invitrogen).
# The double tagged WT-hMC4R was transfected in HEK293T cells with lipofectamine (Invitrogen) following the manufacturer's instructions and permanently transfected clonal cell lines were selected by resistance to the neomycin analog G418.
# HEK293T stable cell line expressing wild-type human melanocortin 4 receptor (WT-hMC4R) containing an N-terminal 3×HA epitope tag and an intracellular C-terminal venus-yellow fluorescent protein (v-YFP) were maintained at 37° C. in humidified air containing 5% CO2 in Dulbecoo's modified Eagle's medium (DMEM) supplemented with 10% fetal bovine serum (FBS), 100 U/ml penicillin/streptomycin (DMEM complete/10% FBS). Cells were generally at 70%-80% confluence on the day of assay.
# T1 sequence (P32245 whole entry): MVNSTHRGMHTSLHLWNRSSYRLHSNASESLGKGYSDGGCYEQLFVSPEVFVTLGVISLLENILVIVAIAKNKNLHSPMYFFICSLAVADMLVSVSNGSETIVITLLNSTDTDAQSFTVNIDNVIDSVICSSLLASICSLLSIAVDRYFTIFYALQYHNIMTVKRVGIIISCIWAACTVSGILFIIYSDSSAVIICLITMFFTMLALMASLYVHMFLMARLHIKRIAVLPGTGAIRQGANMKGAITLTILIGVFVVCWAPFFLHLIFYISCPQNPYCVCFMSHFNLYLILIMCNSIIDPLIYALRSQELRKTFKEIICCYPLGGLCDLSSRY
row,IC50,Compound
1,0.1 to 1 µM,CCCCN(CCCC)C(=O)c1ccc2nc(Nc3ccc(C(=O)N4CCOCC4)cc3)n(CCCN3CCCCC3)c2n1 [Cpd 59]
2,1 to 15 µM,CCCCN(CCCC)C(=O)c1cc2c(cn1)nc(-c1ccc(OC)cc1)n2CCCN1CCCCC1 [Cpd 60]
3,1 to 15 µM,CCCCN(CCCC)C(=O)c1ccc2nc(SCC)n(CCCN3CCCCC3)c2n1 [Cpd 61]
4,0.1 to 1 µM,CCCCN(CCCC)C(=O)c1ccc2nc(Oc3ccc(OC)cc3)n(CCCN3CCCCC3)c2n1 [Cpd 62]
5,0.1 to 1 µM,COc1ccc(-c2nc3cnc(C(=O)N(CCC(C)C)CCC(C)C)cc3n2CCCN2CCCCC2)cc1 [Cpd 63]
6,1 to 15 µM,COc1ccc(Br)cc1-c1nc2cnc(C(=O)N(CCC(C)C)CCC(C)C)cc2n1CCCN1CCCCC1 [Cpd 64]
7,< 0.1 µM,CC(C)CCN(CCC(C)C)C(=O)c1cc2c(cn1)nc(-c1cc3ccccc3s1)n2CCCN1CCCCC1 [Cpd 65]
8,0.1 to 1 µM,CCCCN(CCCC)C(=O)c1cc2c(cn1)nc(Oc1ccc(OC)cc1)n2CCCN1CCCCC1 [Cpd 66]
9,1 to 15 µM,CCCCN(CCCC)C(=O)c1ccc2nc(Nc3ccc(C(=O)O)cc3)n(CCCN3CCCCC3)c2n1 [Cpd 67]
10,< 0.1 µM,CC(=O)c1ccc(Nc2nc3ccc(C(=O)N(CCC(C)C)CCC(C)C)nc3n2CCCN2CCCCC2)cc1 [Cpd 68]
11,< 0.1 µM,CC(C)CCN(CCC(C)C)C(=O)c1ccc2nc(Nc3ccc(C(C)O)cc3)n(CCCN3CCCCC3)c2n1 (stereo not drawn) [Cpd 69]
12,< 0.1 µM,CC(C)CCN(CCC(C)C)C(=O)c1ccc2nc(Nc3ccc(C(C)(C)O)cc3)n(CCCN3CCCCC3)c2n1 [Cpd 70]
13,< 0.1 µM,COC(=O)c1ccc(Nc2nc3ccc(C(=O)N(CCC(C)C)CCC(C)C)nc3n2CCCN2CCCCC2)cc1 [Cpd 71]
14,0.1 to 1 µM,COc1ccc(-c2nc3ccc(C(=O)N(CCC(C)C)CCC(C)C)nc3n2CCCN2CCCCC2)cc1 [Cpd 72]
15,0.1 to 1 µM,CC(C)CCN(CCC(C)C)C(=O)c1ccc2nc(-c3ccc4c(c3)OCO4)n(CCCN3CCCCC3)c2n1 [Cpd 73]
16,0.1 to 1 µM,COc1ccc(Nc2nc3ccc(C(=O)N(CCC(C)C)CCC(C)C)nc3n2CCCN2CCOCC2)cc1 [Cpd 74]
17,0.1 to 1 µM,CC(C)CCN(CCC(C)C)C(=O)c1ccc2nc(Nc3cccnc3)n(CCCN3CCOCC3)c2n1 [Cpd 75]
18,0.1 to 1 µM,CC(C)CCN(CCC(C)C)C(=O)c1ccc2nc(NCc3ccc4c(c3)OCO4)n(CCCN3CCOCC3)c2n1 [Cpd 76]
19,1 to 15 µM,COc1ccc(-c2nc3ccc(C(=O)N(CCC(C)C)CCC(C)C)nc3n2CCCN2CCOCC2)cc1 [Cpd 77]
20,1 to 15 µM,CC(=O)N1CCC(c2nc3ccc(C(=O)N(CCC(C)C)CCC(C)C)nc3n2CCCN2CCOCC2)CC1 [Cpd 78]

# Tested on: MC4R as compared to the MC5R
# Assay: not given
# Details: Nijenhuis et al. Peptides 2003; cited from earlier work
row,Compound,selectivity for the MC4R as compared to the MC5R (MC4R/MC5R)
1,Ac-Nle-Gly-Lys-D-NaI(2)-Arg-Trp-Gly-NH(2),109 fold
2,Ac-Nle-Gly-Lys-D-Phe-Arg-Trp-Gly-NH(2) (Ac-[Nle]GK[dF]RWG-NH2; SMILES CCCC[C@H](NC(C)=O)C(=O)NCC(=O)N[C@@H](CCCCN)C(=O)N[C@H](Cc1ccccc1)C(=O)N[C@@H](CCCNC(=N)N)C(=O)N[C@@H](Cc1c[nH]c2ccccc12)C(=O)NCC(N)=O),110 fold

# Tested on: MC4R as compared to the MC3R
# Assay: not given
# Details: Nijenhuis et al. 2003; Sutton et al. 2008; cited from earlier work
row,Compound,selectivity for the MC4R as compared to the MC3R (MC4R/MC3R)
1,Ac-Nle-Gly-Lys-D-NaI(2)-Arg-Trp-Gly-NH(2),34 fold
2,Ac-Nle-Gly-Lys-D-Phe-Arg-Trp-Gly-NH(2) (Ac-[Nle]GK[dF]RWG-NH2; SMILES CCCC[C@H](NC(C)=O)C(=O)NCC(=O)N[C@@H](CCCCN)C(=O)N[C@H](Cc1ccccc1)C(=O)N[C@@H](CCCNC(=N)N)C(=O)N[C@@H](Cc1c[nH]c2ccccc12)C(=O)NCC(N)=O),90 fold
